Reference: patent US20210196627A1, “SYSTEMS FOR ENTERIC DELIVERY OF THERAPEUTIC AGENTS” (Lyndra, Inc., priority 2018, published 2021)

Assay: Memantine bioanalysis in plasma after duodenal placement of stellate system (LC-MS/MS)
Format: in vivo, beagle dogs
From the text: Six male beagle dogs (each weighing ˜10 kg) were anesthetized and intubated, and stellate-shaped systems bearing memantine drug arms were placed endoscopically through the pylorus into the duodenum. Each stellate system contained steel beads at the tips of the drug arms which facilitated X-ray imaging for confirming successful duodenal placement.
X-rays were collected daily to monitor residence time in the small intestine. Blood samples were collected through Day 10 of the study and processed to plasma for quantitation of memantine using an LC-MS/MS assay. The dogs were monitored for the duration of the study for safety.

time for which sustained release of memantine was measurable (dog plasma, stellate system placed in duodenum, blood sampled through Day 10): 7 days
Tmax (male, beagle, memantine in dog plasma, stellate system placed endoscopically in duodenum): 8 h
exposure from the small intestine (memantine in dog plasma, stellate system placed in duodenum): good exposure
Structure (SMILES): CC12CC3CC(C)(C1)CC(N)(C3)C2 [memantine]
